We go through 18 compounds from patent US10954252B1, “Inhibitors of human immunodeficiency virus replication” (ViiV HEALTHCARE UK (NO.5) LIMITED, priority 2017, dated 2021).

For series [1], the system named is recombinant NL4-3 virus (nef section replaced with Renilla luciferase gene) in MT-2 cells. Briefly: HIV cell culture assay (antiviral activity, luciferase readout). In kind it is cell-based. The settings on record: MT-2 cells infected for 4-5 days with recombinant NL4-3 luciferase virus. How it is done:
HIV cell culture assay—MT-2 cells, 293T cells and the proviral DNA clone of NL4-3 virus were obtained from the NIH AIDS Research and Reference Reagent Program. MT-2 cells were propagated in RPMI 1640 media supplemented with 10% heat inactivated fetal bovine serum (FBS), 100 μg/ml penicillin G and up to 100 units/mL streptomycin. The 293T cells were propagated in DMEM media supplemented with 10% heat inactivated FBS, 100 μg/mL penicillin G and 100 μg/mL streptomycin. A recombinant NL4-3 proviral clone, in which a section of the nef gene was replaced with the Renilla luciferase gene, was used to make the reference virus used in these studies. The recombinant virus was prepared through transfection of the recombinant NL4-3 proviral clone into 293T cells using Transit-293 Transfection Reagent from Mirus Bio LLC (Madison, Wis.). Supernatent was harvested after 2-3 days and the amount of virus present was titered in MT-2 cells using luciferase enzyme activity as a marker by measuring luciferase enzyme activity. Luciferase was quantitated using the EnduRen Live Cell Substrate from Promega (Madison, Wis.). Antiviral activities of compounds toward the recombinant virus were quantified by measuring luciferase activity in MT-2 cells infected for 4-5 days with the recombinant virus in the presence of serial dilutions of the compound.
The 50% effective concentration (ECs) was calculated by using the exponential form of the median effect equation where (Fa)=1/[1+(ED50/drug conc.)^m] (Johnson Va., Byington RT. Infectivity Assay. In Techniques in HIV Research. ed. Aldovini A, Walker BD. 71-76. New York: Stockton Press. 1990).

A short description of series [2]: Compound cytotoxicity, XTT-based colorimetric assay. The series is classed as cell-based. The conditions noted are these: human, uninfected MT2 cells. As to the method:
Compound cytotoxicity and the corresponding CC50 values were determined using the same protocol as described in the antiviral assay except that uninfected cells were used. Cytotoxicity was assessed on day 4 in uninfected MT2 cells by using a XTT (2,3-bis[2-Methoxy-4-nitro-5-sulfophenyl]-2H-tetrazolium-5-carboxyanilide inner salt)-based colorimetric assay (Sigma-Aldrich, St Louis, Mo.). Biological data for select compounds of the invention are contained in Table 1 and Table 1a
For orientation: Formazan colour is commonly taken as a measure of viable cells.

Some results are limits rather than exact numbers.

As a reminder, the EC50 is the concentration needed to bring the measured effect to its halfway point. A word on the CC50: it is the concentration that lowers cell viability or growth by half. High values mean better tolerance by the cells, low ones harm at low concentration. `COc1ccc2c(=O)n(-c3ccc(Cl)c4c(NS(C)(=O)=O)nn(C)c34)c(C(Cc3cc(F)cc(F)c3)NC(=O)Cn3nc(C(F)F)c4c3C(F)(F)[C@@H]3C[C@H]43)nc2c1F` (some centres unmarked) [Example 75]: the EC50 in series [1] (Renilla, NL43, Table 1a) came out at 109 nM. In series [2] (Table 1a, day 4, XTT), this compound returned a CC50 at 4 days above 1000 nM.

As to `Cn1nc(NS(C)(=O)=O)c2c(Cl)ccc(-c3nc4ccccc4nc3[C@H](Cc3cc(F)cc(F)c3)NC(=O)Cn3nc(C(F)F)c4c3C(F)(F)[C@@H]3C[C@H]43)c21` [Example 154, N—((S)-1-(3-(4-chloro-1-methyl-3-(methylsulfonamido)-1H-indazol-7-yl)quinoxalin-2-yl)-2-(3,5-difluorophenyl)ethyl)-2-((3bS,4aR)-3-(difluoromethyl)-5,5-difluoro-3b,4,4a,5-tetrahydro-1H-cyclopropa[3,4]cyclopenta[1,2-c]pyrazol-1-yl)acetamide], the EC50 in series [1] (Renilla, NL43, Table 1a) was found to be 0.43 nM. For the same compound, in series [2] (Table 1a, day 4, XTT), the half-maximal cytotoxic concentration (CC50) at 4 days is above 10000 nM.

For the compound `COc1ccc2c(=O)n(-c3ccc(Cl)c4c(NS(C)(=O)=O)nn(CC(F)F)c34)c([C@H](Cc3cc(F)cc(F)c3)NC(=O)Cn3ccc(C4CC4)n3)nc2n1` (atropisomer, axis not shown) [Example 55.1, N-[(1S)-1-{3-[4-chloro-1-(2,2-difluoroethyl)-3-methanesulfonamido-1H-indazol-7-yl]-7-methoxy-4-oxo-3H,4H-pyrido[2,3-d]pyrimidin-2-yl}-2-(3,5-difluorophenyl)ethyl]-2-(3-cyclopropyl-1H-pyrazol-1-yl)acetamide], the EC50 in series [1] (Table 1a) is 28.5 nM. In addition, the 50% cytotoxic concentration (CC50) at 4 days in series [2] (Table 1a, day 4, XTT) is above 1000 nM.

For the compound `Cn1nc(NS(C)(=O)=O)c2cccc(-n3c(C(Cc4cc(F)cc(F)c4)NC(=O)Cn4nc(C(F)F)c5c4C(F)(F)[C@@H]4C[C@H]54)nc4ccccc4c3=O)c21` (single isomer, unassigned) [Example 69], the EC50 in series [1] (Renilla, NL43, Table 1a) was determined as 78.3 nM. The CC50 at 4 days in series [2] (Table 1a, day 4, XTT) is above 1000 nM.

`CC(C)c1ccc(-c2c([C@H](Cc3cc(F)cc(F)c3)NC(=O)Cn3nc(C(F)F)c4c3C(F)(F)[C@@H]3C[C@H]43)nc3ncnn3c2N)cn1` [Example 10.32, N—((S)-1-(7-amino-6-(6-isopropylpyridin-3-yl)-[1,2,4]triazolo[1,5-a]pyrimidin-5-yl)-2-(3,5-difluorophenyl)ethyl)-2-((3bS,4aR)-3-(difluoromethyl)-5,5-difluoro-3b,4,4a,5-tetrahydro-1H-cyclopropa[3,4]cyclopenta[1,2-c]pyrazol-1-yl)acetamide]: the EC50 in series [1] (Renilla, NL43, Table 1) was found to be 54 nM. This compound also had a 50% cytotoxic concentration (CC50) at 4 days in series [2] (Table 1, day 4, XTT) above 10000 nM.

Consider `O=C(Cn1nc(C(F)F)c2c1C(F)(F)[C@@H]1C[C@H]21)N[C@@H](Cc1cc(F)cc(F)c1)c1nc2ccccc2nc1-c1ccc2c(c1)C(=O)NC2` [Example 157, 2-((3bS,4aR)-3-(difluoromethyl)-5,5-difluoro-3b,4,4a,5-tetrahydro-1H-cyclopropa[3,4]cyclopenta[1,2-c]pyrazol-1-yl)-N—((S)-2-(3,5-difluorophenyl)-1-(3-(3-oxoisoindolin-5-yl)quinoxalin-2-yl)ethyl)acetamide], for which the EC50 in series [1] (Renilla, NL43, Table 1a) amounted to 10.4 nM. Also, in series [2] (Table 1a, day 4, XTT), the CC50 at 4 days is above 10000 nM.

In the case of `CC(C)(C)c1ccc2c(=O)n(-c3ccc(Cl)c4c(NS(C)(=O)=O)nn(CC(F)F)c34)c([C@H](Cc3cc(F)cc(F)c3)NC(=O)Cn3nc(C(F)F)c4c3C(F)(F)[C@@H]3C[C@H]43)nc2c1` [Example 217, N—((S)-1-(7-(tert-Butyl)-3-(4-chloro-1-(2,2-difluoroethyl)-3-(methylsulfonamido)-1H-indazol-7-yl)-4-oxo-3,4-dihydroquinazolin-2-yl)-2-(3,5-difluorophenyl)ethyl)-2-((3bS,4aR)-3-(difluoromethyl)-5,5-difluoro-3b,4,4a,5-tetrahydro-1H-cyclopropa[3,4]cyclopenta[1,2c]pyrazol-1-yl)acetamide], the EC50 in series [1] (Renilla, NL43, Table 1a) worked out at 0.25 nM. The CC50 at 4 days in series [2] (Table 1a, day 4, XTT) is above 1000 nM.

Consider `Cn1nc(NS(C)(=O)=O)c2c(Cl)ccc(-n3c(C(Cc4cc(F)cc(F)c4)NC(=O)Cn4nc(C(F)F)c5c4C(F)(F)[C@@H]4C[C@H]54)nc4c(F)cc(F)cc4c3=O)c21` (some centres unmarked) [Example 73], for which, in series [1] (Renilla, NL43, Table 1a), the concentration for a half-maximal effect (EC50) worked out at 1.53 nM. The compound also displayed a cytotoxic concentration (CC50) at 4 days in series [2] (Table 1a, day 4, XTT) above 1000 nM.

For the compound `Cn1nc(NS(C)(=O)=O)c2c(Cl)ccc(-n3c([C@H](Cc4cc(F)cc(F)c4)NC(=O)Cn4nc(C(F)F)c5c4C(F)(F)[C@@H]4C[C@H]54)nc4c(F)cccc4c3=O)c21` (single isomer, unassigned) [Example 71], the concentration giving a half-maximal response (EC50) in series [1] (Renilla, NL43, Table 1a) stood at 9.58 nM. The compound also displayed a cytotoxic concentration (CC50) at 4 days in series [2] (Table 1a, day 4, XTT) above 1000 nM.

`COc1ccc2c(=O)n(-c3cccc4c(NS(C)(=O)=O)nn(C)c34)c([C@H](Cc3cc(F)cc(F)c3)NC(=O)Cn3nc(C(F)F)c4c3C(F)(F)[C@@H]3C[C@H]43)nc2c1` (single isomer, unassigned) [Example 80]: in series [1] (Renilla, NL43, Table 1a), the EC50 amounted to 0.389 nM. This compound registered a CC50 at 4 days in series [2] (Table 1a, day 4, XTT) above 1000 nM.

Turning to `COc1ccc2c(=O)n(-c3ccc(Cl)c4c(NS(=O)(=O)C5CC5)nn(CC(F)F)c34)c([C@H](Cc3cc(F)cc(F)c3)NC(=O)Cn3nc(C(F)F)c4c3C(F)(F)[C@@H]3C[C@H]43)nc2c1` (single isomer, unassigned) [Example 192], in series [1] (Renilla, NL43, Table 1a), the half-maximal effective concentration (EC50) was 0.04 nM. The same compound yielded a cytotoxic concentration (CC50) at 4 days in series [2] (Table 1a, day 4, XTT) above 1000 nM.

Take `Cn1nc(NS(C)(=O)=O)c2c(Cl)ccc(-n3c([C@H](Cc4cc(F)cc(F)c4)NC(=O)Cn4nc(C(F)F)c5c4C(F)(F)[C@@H]4C[C@H]54)nc4cc(C#N)ccc4c3=O)c21` (mixture of isomers) [Example 166, N—((S)-1-(3-(4-chloro-1-methyl-3-(methylsulfonamido)-1H-indazol-7-yl)-7-cyano-4-oxo-3,4-dihydroquinazolin-2-yl)-2-(3,5-difluorophenyl)ethyl)-2-((3bS,4aR)-3-(difluoromethyl)-5,5-difluoro-3b,4,4a,5-tetrahydro-1H-cyclopropa[3,4]cyclopenta[1,2-c]pyrazol-1-yl)acetamide]: in series [1] (Renilla, NL43, Table 1a), the concentration giving a half-maximal response (EC50) is 26 nM. In series [2] (Table 1a, day 4, XTT), the cytotoxic concentration (CC50) at 4 days was above 1000 nM.

`Cn1nc(NS(C)(=O)=O)c2c(Cl)ccc(-c3cc4scnc4nc3C(Cc3cc(F)cc(F)c3)NC(=O)Cc3c[nH]c4ccc(O)cc34)c21` (centres unmarked) [Example 1.7, N-(1-(6-(4-chloro-1-methyl-3-(methylsulfonamido)-1H-indazol-7-yl)thiazolo[4,5-b]pyridin-5-yl)-2-(3,5-difluorophenyl)ethyl)-2-(5-hydroxy-1H-indol-3-yl)acetamide]: in series [1] (Renilla, NL43, Table 1), the EC50 was found to be 11 nM. The CC50 at 4 days in series [2] (Table 1, day 4, XTT) is above 100000 nM.

In the case of `Cn1nc(NS(C)(=O)=O)c2c(Cl)ccc(-c3cc4[nH]ncc4nc3[C@H](Cc3cc(F)cc(F)c3)NC(=O)Cn3nc(C(F)F)c4c3C(F)(F)[C@@H]3C[C@H]43)c21` [Example 3.7, N—((S)-1-(6-(4-chloro-1-methyl-3-(methylsulfonamido)-1H-indazol-7-yl)-1H-pyrazolo[4,3-b]pyridin-5-yl)-2-(3,5-difluorophenyl)ethyl)-2-((3bS,4aR)-3-(difluoromethyl)-5,5-difluoro-3b,4,4a,5-tetrahydro-1H-cyclopropa[3,4]cyclopenta[1,2-c]pyrazol-1-yl)acetamide], in series [1] (Renilla, NL43, Table 1), the concentration for a half-maximal effect (EC50) stood at 1.2 nM. The same compound returned a CC50 at 4 days in series [2] (Table 1, day 4, XTT) of 33900 nM.

The compound `COc1cc(F)c2c(=O)n(-c3ccc(Cl)c4c(NS(C)(=O)=O)nn(C)c34)c([C@H](Cc3cc(F)cc(F)c3)NC(=O)Cn3ccc(C4CC4)n3)nc2c1` [Example 188, (S)—N-(1-(3-(4-chloro-1-methyl-3-(methylsulfonamido)-1H-indazol-7-yl)-5-fluoro-7-methoxy-4-oxo-3,4-dihydroquinazolin-2-yl)-2-(3,5-difluorophenyl)ethyl)-2-(3-cyclopropyl-1H-pyrazol-1-yl)acetamide] registered a CC50 at 4 days in series [2] (Table 1a, day 4, XTT) above 1000 nM.

In series [2] (Table 1a, day 4, XTT), `Cn1nc(NS(C)(=O)=O)c2c(Cl)ccc(-n3c([C@H](Cc4cc(F)cc(F)c4)NC(=O)Cn4ccc(C5CC5)n4)nc4cc(CS(C)(=O)=O)ccc4c3=O)c21` [Example 205, (S)—N-(1-(3-(4-chloro-1-methyl-3-(methylsulfonamido)-1H-indazol-7-yl)-7-((methylsulfonyl)methyl)-4-oxo-3,4-dihydroquinazolin-2-yl)-2-(3,5-difluorophenyl)ethyl)-2-(3-cyclopropyl-1H-pyrazol-1-yl)acetamide] registered a CC50 at 4 days above 1000 nM.

With `COc1cccc2c(=O)n(-c3ccc(Cl)c4c(NS(C)(=O)=O)nn(C)c34)c([C@H](Cc3cc(F)cc(F)c3)NC(=O)Cn3nc(C(F)F)c4c3C(F)(F)[C@@H]3C[C@H]43)nc12` (single isomer, unassigned) [Example 103], the CC50 at 4 days in series [2] (Table 1a, day 4, XTT) was above 1000 nM.

In turn, `Cn1nc(NS(C)(=O)=O)c2c(Cl)ccc(-n3c([C@H](Cc4cc(F)cc(F)c4)NC(=O)Cn4ccc(C5CC5)n4)nc4cc(C(F)(F)F)ccc4c3=O)c21` (single isomer, unassigned) [Example 150] gave a CC50 at 4 days in series [2] (Table 1a, day 4, XTT) above 1000 nM.
